Read-outs that look alike come from different tables or passages of the source.

Common to all, as to assay type: binding
Test [1] concerns the target T1, HeLa cell extract proteins (Homo sapiens, UniProt Q96RQ3).
T1 construct: endogenous in cells; host or cells: HeLa cell extract
T1 sequence (Q96RQ3 42-725): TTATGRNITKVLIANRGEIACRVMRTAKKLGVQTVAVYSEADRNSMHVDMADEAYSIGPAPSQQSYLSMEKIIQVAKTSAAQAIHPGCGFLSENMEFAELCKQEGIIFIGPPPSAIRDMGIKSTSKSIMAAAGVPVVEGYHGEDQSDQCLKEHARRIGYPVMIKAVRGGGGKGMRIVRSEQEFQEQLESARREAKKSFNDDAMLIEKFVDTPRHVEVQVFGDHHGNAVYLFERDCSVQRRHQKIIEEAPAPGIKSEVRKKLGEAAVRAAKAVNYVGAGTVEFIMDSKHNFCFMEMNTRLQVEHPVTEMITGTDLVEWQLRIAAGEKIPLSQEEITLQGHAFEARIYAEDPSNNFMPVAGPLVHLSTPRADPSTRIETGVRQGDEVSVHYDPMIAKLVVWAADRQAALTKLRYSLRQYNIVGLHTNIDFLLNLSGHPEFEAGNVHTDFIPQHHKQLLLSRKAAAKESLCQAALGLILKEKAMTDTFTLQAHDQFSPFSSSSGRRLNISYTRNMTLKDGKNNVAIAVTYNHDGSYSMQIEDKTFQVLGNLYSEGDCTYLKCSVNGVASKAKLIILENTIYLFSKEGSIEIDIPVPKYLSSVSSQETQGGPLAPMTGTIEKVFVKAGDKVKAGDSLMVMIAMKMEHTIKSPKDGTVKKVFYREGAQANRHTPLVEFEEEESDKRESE
Particulars: captured protein MCCC1; HeLa.

Test [2] concerns the target T2, HeLa cell extract proteins (Homo sapiens, UniProt P30405).
T2 construct: endogenous in cells; host or cells: HeLa cell extract
Particulars: protein PPIF; HeLa.

The target in test [3] is T3, HeLa cell extract proteins (Homo sapiens, UniProt P36776).
T3 construct: endogenous in cells; host or cells: HeLa cell extract
T3 sequence (P36776 68-959): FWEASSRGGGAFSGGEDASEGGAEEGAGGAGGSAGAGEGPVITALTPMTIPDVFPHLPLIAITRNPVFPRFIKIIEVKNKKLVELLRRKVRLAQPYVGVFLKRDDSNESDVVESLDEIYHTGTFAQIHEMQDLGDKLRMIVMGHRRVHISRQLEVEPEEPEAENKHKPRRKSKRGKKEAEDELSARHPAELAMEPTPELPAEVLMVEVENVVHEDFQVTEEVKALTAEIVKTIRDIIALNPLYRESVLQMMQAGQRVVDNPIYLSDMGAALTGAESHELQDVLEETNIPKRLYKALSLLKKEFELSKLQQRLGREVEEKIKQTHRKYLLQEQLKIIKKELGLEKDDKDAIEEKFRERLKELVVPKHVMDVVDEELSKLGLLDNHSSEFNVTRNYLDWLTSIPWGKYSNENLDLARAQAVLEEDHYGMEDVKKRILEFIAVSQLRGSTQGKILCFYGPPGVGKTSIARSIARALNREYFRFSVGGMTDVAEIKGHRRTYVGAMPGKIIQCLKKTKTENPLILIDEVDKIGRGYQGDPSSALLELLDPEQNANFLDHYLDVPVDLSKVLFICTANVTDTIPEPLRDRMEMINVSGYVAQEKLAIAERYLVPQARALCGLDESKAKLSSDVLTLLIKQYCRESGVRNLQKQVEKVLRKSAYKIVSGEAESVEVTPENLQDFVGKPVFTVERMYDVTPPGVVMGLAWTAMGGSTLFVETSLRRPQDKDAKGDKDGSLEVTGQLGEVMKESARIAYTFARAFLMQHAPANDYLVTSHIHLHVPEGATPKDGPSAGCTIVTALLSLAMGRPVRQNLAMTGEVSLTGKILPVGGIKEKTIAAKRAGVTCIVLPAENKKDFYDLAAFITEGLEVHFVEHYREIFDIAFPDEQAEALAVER
Conditions: protein LONP1; HeLa.

Test [4] deals with T4, HeLa cell extract proteins (Homo sapiens, UniProt Q8TDH9).
T4 construct: endogenous in cells; host or cells: HeLa cell extract
T4 sequence (Q8TDH9 1-187): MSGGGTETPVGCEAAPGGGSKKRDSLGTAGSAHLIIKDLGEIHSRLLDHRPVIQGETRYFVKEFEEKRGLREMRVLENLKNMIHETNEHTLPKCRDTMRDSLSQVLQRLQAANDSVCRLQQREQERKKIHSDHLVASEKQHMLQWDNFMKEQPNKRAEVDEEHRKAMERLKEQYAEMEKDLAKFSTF
Conditions: protein MUTED; HeLa.

Test [5] has as its target T5, HeLa cell extract proteins (Homo sapiens, UniProt Q16543).
T5 construct: endogenous in cells; host or cells: HeLa cell extract
T5 sequence (Q16543 1-378): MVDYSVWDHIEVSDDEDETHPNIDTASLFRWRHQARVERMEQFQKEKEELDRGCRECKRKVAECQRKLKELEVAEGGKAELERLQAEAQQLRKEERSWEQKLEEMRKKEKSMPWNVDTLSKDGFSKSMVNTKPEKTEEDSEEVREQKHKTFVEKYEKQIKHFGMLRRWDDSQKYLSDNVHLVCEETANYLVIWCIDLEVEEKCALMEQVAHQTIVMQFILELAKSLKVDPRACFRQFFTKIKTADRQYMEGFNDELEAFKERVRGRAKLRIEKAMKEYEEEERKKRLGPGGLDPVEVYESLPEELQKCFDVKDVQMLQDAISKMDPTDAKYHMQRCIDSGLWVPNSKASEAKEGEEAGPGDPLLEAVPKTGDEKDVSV

Test [6] deals with T6, HeLa cell extract proteins (Homo sapiens, UniProt Q93008).
T6 construct: endogenous in cells; host or cells: HeLa cell extract
T6 sequence (Q93008 whole entry): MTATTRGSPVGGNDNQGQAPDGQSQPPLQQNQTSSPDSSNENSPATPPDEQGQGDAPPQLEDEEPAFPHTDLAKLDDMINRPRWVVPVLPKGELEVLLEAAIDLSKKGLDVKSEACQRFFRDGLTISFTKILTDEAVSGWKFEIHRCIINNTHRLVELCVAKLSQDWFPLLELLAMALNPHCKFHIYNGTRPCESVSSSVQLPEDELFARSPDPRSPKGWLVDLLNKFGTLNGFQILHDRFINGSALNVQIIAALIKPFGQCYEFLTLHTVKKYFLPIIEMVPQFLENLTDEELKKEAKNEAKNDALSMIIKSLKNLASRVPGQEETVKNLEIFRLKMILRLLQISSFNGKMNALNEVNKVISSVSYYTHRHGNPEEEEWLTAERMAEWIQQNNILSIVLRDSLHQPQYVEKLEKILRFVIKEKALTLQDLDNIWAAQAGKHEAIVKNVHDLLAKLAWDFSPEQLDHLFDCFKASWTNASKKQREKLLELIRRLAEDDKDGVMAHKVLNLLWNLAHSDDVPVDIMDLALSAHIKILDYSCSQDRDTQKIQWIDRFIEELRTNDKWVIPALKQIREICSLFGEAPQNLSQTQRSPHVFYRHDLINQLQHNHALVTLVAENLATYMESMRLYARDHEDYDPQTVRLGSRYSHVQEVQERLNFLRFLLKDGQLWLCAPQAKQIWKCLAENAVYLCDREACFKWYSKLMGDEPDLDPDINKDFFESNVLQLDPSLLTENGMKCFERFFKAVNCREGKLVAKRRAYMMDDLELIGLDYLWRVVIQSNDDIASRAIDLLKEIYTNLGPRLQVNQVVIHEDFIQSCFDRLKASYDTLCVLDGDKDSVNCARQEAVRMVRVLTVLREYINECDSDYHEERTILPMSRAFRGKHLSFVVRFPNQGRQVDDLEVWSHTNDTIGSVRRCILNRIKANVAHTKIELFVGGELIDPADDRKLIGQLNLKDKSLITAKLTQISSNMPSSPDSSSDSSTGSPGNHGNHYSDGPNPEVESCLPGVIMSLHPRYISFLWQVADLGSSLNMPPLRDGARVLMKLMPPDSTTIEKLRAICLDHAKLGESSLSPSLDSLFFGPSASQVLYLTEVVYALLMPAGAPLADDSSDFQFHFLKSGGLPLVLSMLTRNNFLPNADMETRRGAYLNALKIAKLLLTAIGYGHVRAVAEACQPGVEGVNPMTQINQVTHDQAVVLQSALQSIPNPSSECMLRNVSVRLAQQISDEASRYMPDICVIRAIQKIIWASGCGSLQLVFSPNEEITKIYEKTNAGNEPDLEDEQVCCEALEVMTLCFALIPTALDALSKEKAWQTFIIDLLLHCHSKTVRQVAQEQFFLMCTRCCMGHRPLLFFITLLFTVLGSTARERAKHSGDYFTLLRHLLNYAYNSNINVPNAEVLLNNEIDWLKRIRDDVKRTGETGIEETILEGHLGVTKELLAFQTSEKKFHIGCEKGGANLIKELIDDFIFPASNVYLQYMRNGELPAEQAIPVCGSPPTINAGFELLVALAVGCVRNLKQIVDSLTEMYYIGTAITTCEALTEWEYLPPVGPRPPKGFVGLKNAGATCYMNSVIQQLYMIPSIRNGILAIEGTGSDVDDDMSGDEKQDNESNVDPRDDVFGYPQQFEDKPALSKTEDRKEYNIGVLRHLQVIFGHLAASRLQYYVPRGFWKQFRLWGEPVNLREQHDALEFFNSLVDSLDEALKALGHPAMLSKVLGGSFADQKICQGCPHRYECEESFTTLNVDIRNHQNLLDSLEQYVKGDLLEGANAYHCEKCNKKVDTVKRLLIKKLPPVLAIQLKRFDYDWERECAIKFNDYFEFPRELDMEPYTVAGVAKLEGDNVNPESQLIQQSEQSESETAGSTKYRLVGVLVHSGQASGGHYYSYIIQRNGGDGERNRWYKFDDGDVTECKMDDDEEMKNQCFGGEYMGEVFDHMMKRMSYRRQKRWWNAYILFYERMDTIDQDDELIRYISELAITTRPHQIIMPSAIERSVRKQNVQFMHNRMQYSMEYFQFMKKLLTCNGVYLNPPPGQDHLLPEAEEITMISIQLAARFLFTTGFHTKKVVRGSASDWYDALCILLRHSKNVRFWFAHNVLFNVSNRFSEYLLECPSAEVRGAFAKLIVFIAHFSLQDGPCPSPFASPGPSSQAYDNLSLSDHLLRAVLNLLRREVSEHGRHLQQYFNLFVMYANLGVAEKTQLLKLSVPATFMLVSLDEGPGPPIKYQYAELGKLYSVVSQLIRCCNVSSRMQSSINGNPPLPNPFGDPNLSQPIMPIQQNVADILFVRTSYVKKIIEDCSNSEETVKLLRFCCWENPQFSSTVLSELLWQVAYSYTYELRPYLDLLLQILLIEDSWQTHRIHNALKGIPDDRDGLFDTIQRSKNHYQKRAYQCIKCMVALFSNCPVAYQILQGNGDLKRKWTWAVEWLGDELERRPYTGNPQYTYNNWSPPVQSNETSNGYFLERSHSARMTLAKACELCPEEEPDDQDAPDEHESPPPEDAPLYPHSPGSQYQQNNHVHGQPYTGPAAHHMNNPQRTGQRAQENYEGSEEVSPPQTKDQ

T2 sequence (P30405 30-207): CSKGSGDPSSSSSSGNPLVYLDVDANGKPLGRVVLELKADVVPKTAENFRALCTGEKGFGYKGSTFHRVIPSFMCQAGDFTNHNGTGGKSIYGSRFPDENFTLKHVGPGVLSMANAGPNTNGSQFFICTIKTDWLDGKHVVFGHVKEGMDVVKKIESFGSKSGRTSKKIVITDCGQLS

On to `CCCCCCOc1cccc(Cc2cnc(N)nc2N)c1` [compound 2], for which the “fold changes relative to vehicle control” value in test [1] came out at 1.15; in test [2] it was 1.79; in test [3], 1.41; in test [4], 1.65.

For the molecule `NCCOCCOCC(=O)Nc1nc2ncc(CNc3ccc(C(=O)NC(CCC(=O)O)C(=O)O)cc3)nc2c(=O)[nH]1` (centres unmarked) [compound 6], the “fold changes relative to vehicle control” value in test [5] (protein CDC37, HeLa) is 1.21; in test [6] (HeLa, captured protein USP9X), 1.31.

For the molecule `CCCCCCOc1ccc(Cc2cnc(N)nc2N)cc1` [compound 1], the “fold changes relative to vehicle control” value in test [1] came to 1.03; in test [2] it was 1.23; in test [3] it was 0.86; in test [4], 1.09.

In the case of `Nc1nc2c(c(=O)[nH]1)N(C=O)C(CNc1ccc(C(=O)N[C@@H](CCC(=O)O)C(=O)O)cc1)CN2` (some centres unmarked) [LEU, leucovorin], the “fold changes relative to vehicle control” value turned out to be 1.13 in test [5] (protein CDC37, HeLa) and 1.13 in test [6] (HeLa, captured protein USP9X).

With `NCCCNc1ccc(C(=O)NC(CCC(=O)O)C(=O)O)cc1` (centres unmarked) [compound 7], the “fold changes relative to vehicle control” value in test [5] (protein CDC37, HeLa) is 1.14; in test [6] (HeLa, captured protein USP9X) it was 1.26.

In the case of `Nc1nc2[nH]cc(CCc3ccc(C(=O)N[C@@H](CCC(=O)O)C(=O)O)cc3)c2c(=O)[nH]1` [PTX, pemetrexed], the results for the “fold changes relative to vehicle control” value in test [5] and in test [6] were 1.1 and 1.17, respectively.

Take `Nc1nc2cccc(-c3ccccc3)c2n1Cc1ccc(Cl)c(Cl)c1` [compound 3]: the “fold changes relative to vehicle control” value in test [1] came out at 1.21; in test [2], 0.95; in test [3], 1.16; in test [4], 0.99.

Source of the values: PMC6199744, “Development of Chemical Proteomics for the Folateome and Analysis of the Kinetoplastid Folateome” (ACS Infectious Diseases, 2018).
